Assay results published in PMC8349882 (Molecular cell, 2021).

Target: GLR3.4-S1S2 (Arabidopsis thaliana, UniProt Q8GXJ4, DEL602-708)
Assay: crystal structure
Assay type: binding
Details: endogenous ligand from expression, none added

Sequence of GLR3.4-S1S2 (Q8GXJ4 492-601, stated change not applied): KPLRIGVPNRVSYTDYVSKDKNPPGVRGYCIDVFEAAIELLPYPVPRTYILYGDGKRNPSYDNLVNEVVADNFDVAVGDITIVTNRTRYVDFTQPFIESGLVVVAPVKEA
Sequence of GLR3.4-S1S2 (Q8GXJ4 709-842, stated change not applied): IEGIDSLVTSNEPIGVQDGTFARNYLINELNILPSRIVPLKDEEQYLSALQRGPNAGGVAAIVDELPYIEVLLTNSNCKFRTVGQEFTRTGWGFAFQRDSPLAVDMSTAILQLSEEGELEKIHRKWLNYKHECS

## N[C@@H](CO)C(=O)O [serine]
  crystal structure: The serine-bound LBD structure was solved without adding the ligand to the protein
